Experimental data from patent US6211425A, “Patch” (Saitama Daiichi Seiyaku Kabushiki Kaisha, priority 1996, dated 2001).
“Also recorded” adds a separate entry of the source.

What was measured:
[1] = percutaneous absorption of formoterol (finding of the inventors); conditions: formoterol and/or salts thereof not in a dissolved state
[2] = hydrolytic stability of formoterol (general statement); assay type: physicochemical; conditions: preparations having high water contents

For COc1ccc(CC(C)NCC(O)c2ccc(O)c(NC=O)c2)cc1 (centres unmarked) [formoterol], the percutaneous absorption [1] was “extremely poor percutaneous absorption” and the hydrolysis [2] was “hydrolyzed; also recorded: easily hydrolyzable”.
